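Interpolation was linear, between the two tested concentrations surrounding the appropriate level; five concentrations were tested over 48 hours in 96-well plates. GI50 is the concentration that inhibits growth by half. TGI: concentration producing complete growth inhibition.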
tested on: SK-MEL-28 melanoma; assay: DTP human tumour cell line panel, 48 h

Point of comparison: `CC(C)=CCc1c2c(c3occ(-c4ccc(O)cc4)c(=O)c3c1O)CC(C(C)(C)O)O2` (configuration not stated), TGI 58.5 µM. Against it:
- c1ccc(N=c2sc3ccccc3nc2Nc2ccccc2)cc1 — higher, > 100 µM
- O=C1/C(=C/c2ccccc2)N=C2Sc3c(nc[nH]c3=O)N12 — higher, > 100 µM
- C=CC1(C)CCC2C(=CCC3C2(C)CC(O)C(O)C3(C)COC2OC(C(=O)O)C(O)C(O)C2O)C1 (configuration not stated) (tested in a mixture with another compound) — higher, > 100 µM
- N#Cc1c(N2CCCC2)ncn(-c2ccccc2)c1=O — higher, > 100 µM
- N#CC1(C#N)N[C@@H](c2ccsc2)[C@H]2C(=O)N(c3ccccc3)C(=O)[C@H]21 — higher, > 100 µM
- O=[N+]([O-])c1ccc2c(c1)/C(=N/N=C1c3ccccc3Cc3ccccc31)c1cc([N+](=O)[O-])cc([N+](=O)[O-])c1-2 — 6.5-fold lower, 9.05 µM
- Cc1ccc([N+](=O)[O-])cc1NC1=NCCO1 — higher, > 100 µM
- CCOC(=O)C(SCCO)C(C(=O)OCC)n1cnc2c(=O)[nH]c(NC(C)=O)nc21 (configuration not stated) — higher, > 100 µM
- COc1cc(C2c3cc4c(cc3OC(N3CCOCC3)C2C)OCO4)ccc1O (configuration not stated) — higher, > 100 µM
- Cc1ccccc1C(=O)N1CCc2c([nH]c3ccccc23)C1 — higher, > 100 µM
- CC[C@@H]1CC[C@@H]2[C@H](CC[C@]3(C)[C@@H](OC(C)=O)CC[C@@H]23)[C@H]1COC(C)=O — higher, > 100 µM
- NS(=O)(=O)c1ccc2c(c1)OCCOCCOCCOCCO2 — higher, > 100 µM
- COC(=O)c1cc(=O)nc2sc3cccc(C)c3n12 — higher, > 100 µM

tested on: SN12C renal; assay: DTP human tumour cell line panel, 48 h

Point of comparison: `O=[N+]([O-])c1ccc2c(c1)/C(=N/N=C1c3ccccc3Cc3ccccc31)c1cc([N+](=O)[O-])cc([N+](=O)[O-])c1-2`, TGI 3.23 µM. Against it:
- O=C1CSC(c2ccc(Cl)cc2)N1c1ccc(Oc2ccc(Cl)cc2)c(Cl)c1 (configuration not stated) — 12-fold higher, 38.6 µM
- Cc1ccc(C(=O)O)cc1S(=O)(=O)Nn1cnc2ccc(S(=O)(=O)Nc3ccccc3C(=O)O)cc2c1=O — higher, > 100 µM
- CCCCCCc1cc2cc(-c3csc(CC#N)n3)c(=O)oc2cc1O — higher, > 100 µM
- C=C1C(=O)O[C@@H]2C(=O)[C@@H](C)CCC/C(C)=C/CC[C@@]3(C)O[C@@H]3C[C@@H]12 — higher, > 100 µM
- COc1cc(Br)cc2cc(-c3cn4ccsc4n3)c(=O)oc12 — higher, > 100 µM
- C[C@]12CCC(O)CC1=CC[C@@H]1[C@@H]2CC[C@]2(C)C(=O)[C@H](n3ccnc3)C[C@@H]12 (some centres not stated) — higher, > 100 µM
- O=c1[nH]c(Nc2cccc(CC(F)(F)F)c2)nc2nc[nH]c12 — higher, > 100 µM
- COc1ccc(-c2cc(O)c3nc4ccccc4n3c2)cc1 — higher, > 100 µM
- O=C1CC(NC(=O)C(F)(F)F)c2c(Br)sc(N3CCNCC3)c21 (configuration not stated) — higher, > 100 µM
- COc1cc2nc3n(c(=O)c2cc1OC)-c1ccc([N+](=O)[O-])cc1C3=O — higher, > 100 µM
- CC(=O)OC1CC(OC2C(O)CC(OC3C(O)CC(OC4CCC5(C)C(CCC6C5CC(O)C5(C)C(C7=CC(=O)OC7)CCC65O)C4)OC3C)OC2C)OC(C)C1OC1OC(CO)C(O)C(O)C1O (configuration not stated) — 29-fold lower, 0.112 µM
- Nc1nc(SCCc2ccccc2)c2[nH]cnc2n1 — higher, > 100 µM
- Cc1ccc(-c2n[nH]c(=O)n2N2C(=O)c3ccccc3C2=O)cc1 — higher, > 100 µM
- COc1cc2c(c(OC)c1OC)C(=O)[C@@H]1[C@H]2N1C(N)=O — higher, > 100 µM
- COC(=O)C1SC(SC)=NC12c1ccccc1Nc1ccccc12 (configuration not stated) — higher, > 100 µM
- CCOC(=O)C1(C/C=C/CBr)Cc2ccccc2C1=O (configuration not stated) — 2-fold higher, 6.41 µM
- CN1CCc2cc(N)cc3c2C1Cc1ccc(O)c(O)c1-3 (configuration not stated) — higher, > 100 µM
- O=C1CCCSC(=O)N1Cc1ccccc1 — higher, > 100 µM
- COC(=O)c1c(C)cccc1C1CN=NC12Cc1ccc(C)cc1C2=O (configuration not stated) — higher, > 100 µM
- N#Cc1c(-c2ccccc2)/c(=C\Nc2cccc(C(F)(F)F)c2)c(=O)n2c1nc1ccccc12 — 16-fold higher, 50.5 µM
- S=C1Nc2ccccc2SC1c1ccccc1 (configuration not stated) — higher, > 100 µM
- COC(=O)c1ccccc1CC1Cc2ccc3c(c2C1=O)CCCC3 (configuration not stated) — higher, > 100 µM
- CN1CCN(C2=NCCO2)CC1 — higher, > 100 µM
- c1ccc(N=c2sc3ccccc3nc2Nc2ccccc2)cc1 — higher, > 100 µM
- O=C1/C(=C/c2ccccc2)N=C2Sc3c(nc[nH]c3=O)N12 — higher, > 100 µM
- C=CC1(C)CCC2C(=CCC3C2(C)CC(O)C(O)C3(C)COC2OC(C(=O)O)C(O)C(O)C2O)C1 (configuration not stated) (tested in a mixture with another compound) — higher, > 100 µM
- N#Cc1c(N2CCCC2)ncn(-c2ccccc2)c1=O — higher, > 100 µM
- N#CC1(C#N)N[C@@H](c2ccsc2)[C@H]2C(=O)N(c3ccccc3)C(=O)[C@H]21 — higher, > 100 µM
- Cc1ccc([N+](=O)[O-])cc1NC1=NCCO1 — higher, > 100 µM
- CC(C)=CCc1c2c(c3occ(-c4ccc(O)cc4)c(=O)c3c1O)CC(C(C)(C)O)O2 (configuration not stated) — 12-fold higher, 38.5 µM
- CCOC(=O)C(SCCO)C(C(=O)OCC)n1cnc2c(=O)[nH]c(NC(C)=O)nc21 (configuration not stated) — higher, > 100 µM
- COc1cc(C2c3cc4c(cc3OC(N3CCOCC3)C2C)OCO4)ccc1O (configuration not stated) — higher, > 100 µM
- Cc1ccccc1C(=O)N1CCc2c([nH]c3ccccc23)C1 — 11-fold higher, 34.1 µM
- CC[C@@H]1CC[C@@H]2[C@H](CC[C@]3(C)[C@@H](OC(C)=O)CC[C@@H]23)[C@H]1COC(C)=O — 19-fold higher, 60.9 µM
- NS(=O)(=O)c1ccc2c(c1)OCCOCCOCCOCCO2 — higher, > 100 µM
- COC(=O)c1cc(=O)nc2sc3cccc(C)c3n12 — higher, > 100 µM

`CC(=O)OC1CC(OC2C(O)CC(OC3C(O)CC(OC4CCC5(C)C(CCC6C5CC(O)C5(C)C(C7=CC(=O)OC7)CCC65O)C4)OC3C)OC2C)OC(C)C1OC1OC(CO)C(O)C(O)C1O` (configuration not stated) showed a GI50 of 0.0194 µM.

Reference: PubChem BioAssay (NCI)
